# In article PMC11357256, “Selectivity Screening and Structure–Cytotoxic Activity Observations of Selected Oleanolic Acid (OA)-Type Saponins from the Amaranthaceae Family on a Wiade Panel of Human Cancer Cell Lines” (Molecules, 2024):
# pIC50: −log10 of the molar value. Where two headings read alike, the source gives them in different places.
# Assays:
# [1] = tested on: MDA-MB-231; assay: MTT cell viability assay, MDA-MB-231 breast adenocarcinoma cells; format: cell-based; conditions: Homo sapiens
# Text: (§1) Cell lines used in the study were grouped as follows: skin panel (melanomas: HTB140, derived from metastatic site: lymph node, ATCC Hs 294 T; malignant A375, ATCC CRL-1619; stage I primary WM793, RRID:CVCL 8787; skin keratinocytes HaCaT); prostate panel (prostate carcinomas: Du145, derived from metastatic site: brain, ATCC HTB-81; grade IV PC3, derived from metastatic site: bone, ATCC CRL-1435, LNCaP, derived from the metastatic site: lymph node, ATCC CRL-1740; prostate epithelial, PNT2, ECACC 95012613); gastrointestinal panel (colorectal adenocarcinomas: Caco2, ATCC HTB-37, HT29, ATCC HTB-38, DLD-1, ATCC CCL-221, HCT116, ATCC CCL-247, and colon epithelial cells CCD 841 CoN, ATCC CRL-1790; hepatocellular carcinoma HepG2, ATCC HB-8065); thyroid panel (follicular thyroid carcinoma FTC133, ECACC 9406090, undifferentiated thyroid carcinoma 8505C, ECACC 94090184, papillary thyroid carcinoma TPC-1, SCC147, normal thyroid follicular epithelial Nthy-ori 3–1, ECACC 90011609); and breast panel (ER-positive breast adenocarcinoma MCF7, ATCC HTB-22; ER-negative breast adenocarcinoma MDA-MB-231, ATCC HTB-26; breast epithelial MCF10A, ATCC CRL-10317). Cells were grown under standard conditions (37 °C, 5% CO2, relative humidity), and culture media (DMEM/F12 for PNT2, WM 793, HT29, PC3, FTC133, 8505 C, MDA-MB-231, TPC-1; DMEM Low Glucose for DU145; DMEM High Glucose for HTB140, A375, HaCaT; MEM with NEAA for Caco2 and MCF7; RPMI1640 with sodium pyruvate for LNCaP; DMEM/F12 with 20 ng/mL epidermal growth factor (EGF), 10 μg/mL insulin, 0.5 μg/mL hydrocortisone, 100 ng/mL cholera toxin) for MCF10A) supplemented with 10% fetal bovine serum (FBS) or 5% donor horse serum for MCF10A, and 1% antibiotics solution (10,000 U penicillin and 10 mg streptomycin/mL) […], as previously described. All cell lines, culture media, and supplements were from Sigma-Aldrich (Germany).
# (§2) The cells were seeded in 96-well plates (1.5 × 10^4 cells/well). After 24 h, fresh medium was added, containing the tested compounds (0.5–100 μg/mL) and incubated for 24 or 48 h. Cell viability was determined by MTT assay, according to the manufacturer’s instructions, as described previously. Each experiment was performed in triplicate. The absorbance was measured at 570 nm using a Biotek Synergy microplate reader (BioTek Instruments Inc., Winooski, VT, USA). Cell viability was expressed as a percent of control (untreated cells). Doxorubicin was used as a reference drug.
# [2] = tested on: MCF7; assay: MTT cell viability assay, MCF7 breast adenocarcinoma cells; format: cell-based; conditions: Homo sapiens
# Text: as §1, §2
# [3] = tested on: WM793; assay: MTT cell viability assay, WM793 primary melanoma cells; format: cell-based, human; conditions: for IC50: Homo sapiens
# Text: as §1, §2
# (§3) The selectivity index (SI) was calculated from the following formula:SI = IC50 of compound in a normal cell line/IC50 of compound in cancer cell line.IC50, half maximal inhibitory concentration, is a concentration required to kill 50% of the cells.
# [4] = tested on: HTB-140; assay: MTT cell viability assay, HTB-140 metastatic melanoma cells; format: cell-based, human; conditions: for IC50: Homo sapiens
# Text: as §1, §2, §3
# [5] = tested on: 8505C; assay: MTT cell viability assay, 8505C undifferentiated thyroid carcinoma cells; format: cell-based, human; conditions: for IC50: Homo sapiens, 8505C; for Selectivity Index (SI): IC50 Nthy-ori 3-1 / IC50 8505C
# Text: as §1, §2, §3
# [6] = tested on: Du-145; assay: MTT cell viability assay, Du-145 prostate carcinoma cells; format: cell-based; conditions: Homo sapiens
# Text: as §1, §2
# [7] = tested on: TPC-1; assay: MTT cell viability assay, TPC-1 papillary thyroid carcinoma cells; format: cell-based, human; conditions: for IC50: Homo sapiens, TPC1
# Text: as §1, §2, §3
# [8] = tested on: DLD-1; assay: MTT cell viability assay, DLD-1 colon cancer cells; format: cell-based; conditions: Homo sapiens
# Text: as §1, §2
# [9] = tested on: MCF-7 cells; conditions: cited from earlier work
# [10] = tested on: HCT116; assay: MTT cell viability assay, HCT116 colon cancer cells; format: cell-based; conditions: Homo sapiens, HCT-116
# Text: as §1, §2
# [11] = tested on: HaCaT; assay: MTT cell viability assay, HaCaT keratinocytes; format: cell-based; conditions: Homo sapiens
# Text: as §1, §2
# [12] = tested on: PNT2; assay: MTT cell viability assay, PNT2 normal prostate epithelial cells; format: cell-based; conditions: Homo sapiens
# Text: as §1, §2
# [13] = tested on: FTC133; assay: MTT cell viability assay, FTC133 follicular thyroid carcinoma cells; format: cell-based, human; conditions: for IC50: Homo sapiens, FTC-133
# Text: as §1, §2, §3
# [14] = tested on: PC3; assay: MTT cell viability assay, PC3 prostate carcinoma cells; format: cell-based; conditions: Homo sapiens, PC-3
# Text: as §1, §2
# [15] = tested on: Nthy-ori 3-1; assay: MTT cell viability assay, Nthy-ori 3-1 normal thyroid epithelial cells; format: cell-based; conditions: Homo sapiens
# Text: as §1, §2
# [16] = tested on: HepG2; assay: MTT cell viability assay, HepG2 hepatocellular carcinoma cells; format: cell-based; conditions: Homo sapiens
# Text: as §1, §2
# [17] = tested on: Caco-2; assay: MTT cell viability assay, Caco-2 colon cancer cells; format: cell-based; conditions: Homo sapiens
# Text: as §1, §2
# [18] = tested on: CCD 841 CoN; assay: MTT cell viability assay, CCD 841 CoN normal colon epithelial cells; format: cell-based; conditions: Homo sapiens
# Text: as §1, §2
# [19] = tested on: LNCaP; assay: MTT cell viability assay, LNCaP prostate adenocarcinoma cells; format: cell-based; conditions: Homo sapiens
# Text: as §1, §2
smiles,measurement,setting,value
"CC1(C)CCC2(C(=O)O)CCC3(C)C(=CCC4C5(C)CCC(OC6OC(C(=O)O)C(O)C(O)C6O)C(C)(C)C5CCC43C)C2C1 [CE, oleanolic acid-3-O-β-D-glucuronopyranoside]",IC50,"[1]; MDA-MB-231, 24 h",69.6 µg/mL
same,IC50,"[1]; MDA-MB-231, 48 h",23.5 µg/mL
same,IC50,"[2]; MCF7, 24 h",> 100 µg/mL
same,IC50,"[2]; MCF7, 48 h",39.5 µg/mL
same,IC50,"[3]; WM793, 24 h",2.4 µg/mL
same,IC50,"[3]; WM793, 48 h",1.2 µg/mL
same,Selectivity Index (SI),"[3]; IC50 HaCaT / IC50 WM793, 24 h",2.1
same,Selectivity Index (SI),"[3]; IC50 HaCaT / IC50 WM793, 48 h",1.6
same,IC50,"[4]; HTB-140, 24 h",2.8 µg/mL
same,IC50,"[4]; HTB-140, 48 h",1.7 µg/mL
same,Selectivity Index (SI),"[4]; IC50 HaCaT / IC50 HTB-140, 24 h",1.8
same,Selectivity Index (SI),"[4]; IC50 HaCaT / IC50 HTB-140, 48 h",1.1
same,IC50,[5]; 24 h,2.8 µg/mL
same,IC50,[5]; 48 h,1.8 µg/mL
same,Selectivity Index (SI),[5]; 24 h,26.9
same,Selectivity Index (SI),[5]; 48 h,16.5
same,IC50,"[6]; DU-145, 24 h",6.7 µg/mL
same,IC50,"[6]; DU-145, 48 h",4.3 µg/mL
same,IC50,"[7]; TPC-1, 24 h",8.5 µg/mL
same,IC50,"[7]; TPC-1, 48 h",5.8 µg/mL
same,Selectivity Index (SI),"[7]; IC50 Nthy-ori 3-1 / IC50 TPC-1, 24 h",9.0
same,Selectivity Index (SI),"[7]; IC50 Nthy-ori 3-1 / IC50 TPC-1, 48 h",5.1
same,IC50,"[8]; DLD-1, 24 h",31.2 µg/mL
same,IC50,"[8]; DLD-1, 48 h",9 µg/mL
same,IC50,"[9]; 48 h, ref 13",35.4 µg/mL
same,pIC50,"[9]; 48 h, ref 14, read-out: IC50",4.71
same,pIC50,"[9]; 72 h, read-out: IC50",4.87
same,IC50,"[10]; HCT116, 24 h",14.3 µg/mL
same,IC50,"[10]; HCT116, 48 h",10.2 µg/mL
same,IC50,[11]; 24 h,5.1 µg/mL
same,IC50,[11]; 48 h,2 µg/mL
same,IC50,[12]; 24 h,> 100 µg/mL
same,IC50,[12]; 48 h,> 100 µg/mL
same,IC50,"[13]; FTC133, 24 h",1.9 µg/mL
same,IC50,"[13]; FTC133, 48 h",1.1 µg/mL
same,Selectivity Index (SI),"[13]; IC50 Nthy-ori 3-1 / IC50 FTC133, 24 h",38.6
same,Selectivity Index (SI),"[13]; IC50 Nthy-ori 3-1 / IC50 FTC133, 48 h",28.1
same,IC50,"[14]; PC3, 24 h",5.6 µg/mL
same,IC50,"[14]; PC3, 48 h",2.9 µg/mL
same,IC50,[15]; 24 h,76 µg/mL
same,IC50,[15]; 48 h,30.1 µg/mL
same,IC50,"[16]; HepG2, 24 h",16.5 µg/mL
same,IC50,"[16]; HepG2, 48 h",6.9 µg/mL
same,IC50,"[17]; Caco-2, 24 h",2 µg/mL
same,IC50,"[17]; Caco-2, 48 h",1 µg/mL
same,IC50,[18]; 24 h,> 100 µg/mL
same,IC50,[18]; 48 h,> 100 µg/mL
same,IC50,[19]; 24 h,> 100 µg/mL
same,IC50,[19]; 48 h,> 100 µg/mL
